The values below are quoted from earlier work in patent US11938119B2, “Cannabis production systems and methods” ([…], LLC, priority 2017, dated 2024).

The conditions of the series: stated "in embodiments"; no solvent system or method printed.

Regarding `CCCCCc1cc(O)c2c(c1)OC(C)(C)[C@@H]1CCC(C)=C[C@@H]21` [tetrahydrocannabinol], the partition coefficient is reported as 6.99. As to `C=C(C)[C@@H]1CCC(C)=C[C@H]1c1c(O)cc(CCCCC)cc1O` [cannabidiol], the partition coefficient is on record as 5.79.
